Where a SMILES comes first, the peptide text is derived from it. [ ]: non-standard residue; d: D form. The star is where a group is joined. NHCH2CH2OH = OCCN*; For = O=C*
Key:
[1] = H+/Na+ transport assay of bead-derived peptides (one-point); type: biochemical; design: key: relative activity; mean of two control wells = 1.00; details: bead-derived peptide solution, EYPC/EYPG LUVs;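 further: relative to parent gramicidin A activity set to 1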
Procedure, shortened: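 H+/Na+ transport is monitored through pyranine fluorescence in freshly extruded LUVs after a 30-min room-temperature vortex with each library peptide at a single concentration. Signals are normalized to detergent (Triton X-100) and untreated controls.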

[2] = cell viability/%
Procedure, shortened: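 First, library peptide stocks are diluted 250-fold in RPMI1640 with 10% heat-inactivated FBS. Next, they are mixed with P388 cells to give 1 × 10^4 cells/mL and incubated 92 h at 37 °C, 5% CO2. Finally, viability (%) is scored by WST-1 absorbance at 415 nm.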

[3] = tested on: Streptococcus pyogenes SSI-9; assay: Antibacterial activity assay of bead-derived peptides (three concentrations); type: cell-based; design: key: +++: inhibition by the 640-fold diluted peptide solution; ++: inhibition by the 160-fold diluted solution; +: inhibition by the 40-fold diluted solution; -: no inhibition; details: S. pyogenes, bead-derived peptide solution, three concentrations
Procedure, shortened: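 Three stock dilutions per peptide (none, 4-fold, 16-fold in DMSO) are screened in 96-well format. The medium is blood-supplemented cation-adjusted MHB, inoculated with 2 × 10^5 CFU S. pyogenes SSI-9. Growth is read as cell precipitation at 18 h, 37 °C.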

SMILES: CC(C)C[C@@H](NC(=O)[C@H](Cc1c[nH]c2ccccc12)NC(=O)[C@H](NC(=O)[C@H](Cc1c[nH]c2ccccc12)NC(=O)[C@H](NC(=O)[C@@H](NC(=O)[C@H](NC(=O)[C@H](C)NC(=O)[C@H](NC(=O)[C@H](C)NC(=O)CNC(=O)[C@@H](NC=O)C(C)C)C(C)C)[C@H](C)O)C(C)C)C(C)C)C(C)C)C(=O)N[C@@H](Cc1c[nH]c2ccccc12)C(=O)N[C@@H](C(=O)N[C@@H](Cc1c[nH]c2ccccc12)C(=O)NCCO)C(C)C [compound 7061] (For-VGA[dV]A[dT]V[dV]W[dV]W[dL]W[dV]W-NHCH2CH2OH)
- H+/Na+ transport activity normalized against the value of 1 (1.00) [1]: 1.01
- viability [2]: 100%
- antibacterial activity [3]: -

SMILES: CC(C)C[C@@H](NC(=O)[C@H](C)NC(=O)CNC(=O)[C@@H](NC=O)C(C)C)C(=O)N[C@@H](C)C(=O)N[C@@H](C(=O)N[C@H](C(=O)N[C@@H](C(=O)N[C@@H](Cc1c[nH]c2ccccc12)C(=O)N[C@@H](C(=O)N[C@@H](Cc1c[nH]c2ccccc12)C(=O)N[C@@H](C(=O)N[C@@H](Cc1c[nH]c2ccccc12)C(=O)N[C@@H](C(=O)N[C@@H](Cc1c[nH]c2ccccc12)C(=O)NCCO)C(C)C)C(C)C)C(C)C)C(C)C)C(C)C)[C@H](C)O [compound 5343] (For-VGA[dL]A[dT]V[dV]W[dV]W[dV]W[dV]W-NHCH2CH2OH)
- H+/Na+ transport activity normalized against the value of 1 (1.00) [1]: 1.33
- viability [2]: 100%
- antibacterial activity [3]: -

SMILES: CNC(=O)C[C@@H](NC(=O)[C@H](Cc1c[nH]c2ccccc12)NC(=O)[C@H](NC(=O)[C@H](Cc1c[nH]c2ccccc12)NC(=O)[C@@H](CC(C)C)NC(=O)[C@@H](NC(=O)[C@@H](CC(C)C)NC(=O)[C@H](C)NC(=O)[C@@H](CC(C)C)NC(=O)[C@H](C)NC(=O)CNC(=O)[C@@H](NC=O)C(C)C)C(C)C)C(C)C)C(=O)N[C@@H](Cc1c[nH]c2ccccc12)C(=O)N[C@@H](C(=O)N[C@@H](Cc1c[nH]c2ccccc12)C(=O)NCCO)[C@H](C)O [compound 3885] (For-VGA[dL]A[dL]V[dL]W[dV]W[dD](NHMe)W[dT]W-NHCH2CH2OH)
- H+/Na+ transport activity normalized against the value of 1 (1.00) [1]: 1.00
- viability [2]: 100%
- antibacterial activity [3]: -

SMILES: CC(C)C[C@@H](NC(=O)[C@H](Cc1c[nH]c2ccccc12)NC(=O)[C@H](NC(=O)[C@@H](NC(=O)[C@H](NC(=O)[C@H](C)NC(=O)[C@H](NC(=O)[C@H](C)NC(=O)CNC(=O)[C@@H](NC=O)C(C)C)C(C)C)[C@H](C)O)C(C)C)C(C)C)C(=O)N[C@@H](Cc1c[nH]c2ccccc12)C(=O)N[C@H](CC(C)C)C(=O)N[C@@H](Cc1c[nH]c2ccccc12)C(=O)N[C@@H](C(=O)N[C@@H](Cc1c[nH]c2ccccc12)C(=O)NCCO)C(C)C [compound 8141] (For-VGA[dV]A[dT]V[dV]W[dL]W[dL]W[dV]W-NHCH2CH2OH)
- H+/Na+ transport activity normalized against the value of 1 (1.00) [1]: 1.03
- viability [2]: 100%
- antibacterial activity [3]: -

SMILES: CC(C)C[C@@H](NC(=O)[C@H](C)NC(=O)[C@H](NC(=O)[C@H](C)NC(=O)CNC(=O)[C@@H](NC=O)C(C)C)C(C)C)C(=O)N[C@H](C(=O)N[C@@H](C(=O)N[C@@H](Cc1c[nH]c2ccccc12)C(=O)N[C@H](CC(C)C)C(=O)N[C@@H](Cc1c[nH]c2ccccc12)C(=O)N[C@@H](C(=O)N[C@@H](Cc1c[nH]c2ccccc12)C(=O)N[C@H](CC(C)C)C(=O)N[C@@H](Cc1c[nH]c2ccccc12)C(=O)NCCO)[C@H](C)O)C(C)C)C(C)C [compound 9177] (For-VGA[dV]A[dL]V[dV]W[dL]W[dT]W[dL]W-NHCH2CH2OH)
- H+/Na+ transport activity normalized against the value of 1 (1.00) [1]: 1.05
- viability [2]: 61.7%
- antibacterial activity [3]: -

SMILES: CC(C)C[C@@H](NC(=O)[C@H](C)NC(=O)CNC(=O)[C@@H](NC=O)C(C)C)C(=O)N[C@@H](C)C(=O)N[C@H](CC(C)C)C(=O)N[C@H](C(=O)N[C@@H](C(=O)N[C@@H](Cc1c[nH]c2ccccc12)C(=O)N[C@H](CC(C)C)C(=O)N[C@@H](Cc1c[nH]c2ccccc12)C(=O)N[C@H](CC(C)C)C(=O)N[C@@H](Cc1c[nH]c2ccccc12)C(=O)N[C@@H](C(=O)N[C@@H](Cc1c[nH]c2ccccc12)C(=O)NCCO)C(C)C)C(C)C)C(C)C [compound 1796] (For-VGA[dL]A[dL]V[dV]W[dL]W[dL]W[dV]W-NHCH2CH2OH)
- H+/Na+ transport activity normalized against the value of 1 (1.00) [1]: 1.09
- viability [2]: 0%
- antibacterial activity [3]: -

SMILES: CC(C)C[C@@H](NC(=O)[C@H](C)NC(=O)CNC(=O)[C@@H](NC=O)C(C)C)C(=O)N[C@@H](C)C(=O)N[C@@H](C(=O)N[C@H](C(=O)N[C@@H](C(=O)N[C@@H](Cc1c[nH]c2ccccc12)C(=O)N[C@@H](C(=O)N[C@@H](Cc1c[nH]c2ccccc12)C(=O)N[C@H](CC(C)C)C(=O)N[C@@H](Cc1c[nH]c2ccccc12)C(=O)N[C@H](CC(C)C)C(=O)N[C@@H](Cc1c[nH]c2ccccc12)C(=O)NCCO)[C@H](C)O)C(C)C)C(C)C)C(C)C [compound 10674] (For-VGA[dL]A[dV]V[dV]W[dT]W[dL]W[dL]W-NHCH2CH2OH)
- H+/Na+ transport activity normalized against the value of 1 (1.00) [1]: 1.08
- viability [2]: 87.3%
- antibacterial activity [3]: +

SMILES: CC(C)C[C@@H](NC(=O)[C@H](Cc1c[nH]c2ccccc12)NC(=O)[C@H](NC(=O)[C@H](Cc1c[nH]c2ccccc12)NC(=O)[C@@H](CC(C)C)NC(=O)[C@H](Cc1c[nH]c2ccccc12)NC(=O)[C@H](NC(=O)[C@@H](NC(=O)[C@H](NC(=O)[C@H](C)NC(=O)[C@H](NC(=O)[C@H](C)NC(=O)CNC(=O)[C@@H](NC=O)C(C)C)C(C)C)[C@H](C)O)C(C)C)C(C)C)C(C)C)C(=O)N[C@@H](Cc1c[nH]c2ccccc12)C(=O)NCCO [compound 7912] (For-VGA[dV]A[dT]V[dV]W[dL]W[dV]W[dL]W-NHCH2CH2OH)
- H+/Na+ transport activity normalized against the value of 1 (1.00) [1]: 1.12
- viability [2]: 100%
- antibacterial activity [3]: -

SMILES: CC(C)C[C@@H](NC(=O)[C@H](C)NC(=O)CNC(=O)[C@@H](NC=O)C(C)C)C(=O)N[C@@H](C)C(=O)N[C@@H](C(=O)N[C@H](C(=O)N[C@@H](C(=O)N[C@@H](Cc1c[nH]c2ccccc12)C(=O)N[C@@H](C(=O)N[C@@H](Cc1c[nH]c2ccccc12)C(=O)N[C@H](CC(C)C)C(=O)N[C@@H](Cc1c[nH]c2ccccc12)C(=O)N[C@@H](C(=O)N[C@@H](Cc1c[nH]c2ccccc12)C(=O)NCCO)C(C)C)C(C)C)[C@H](C)O)C(C)C)C(C)C [compound 2154] (For-VGA[dL]A[dV]V[dT]W[dV]W[dL]W[dV]W-NHCH2CH2OH)
- H+/Na+ transport activity normalized against the value of 1 (1.00) [1]: 1.09
- viability [2]: 100%
- antibacterial activity [3]: -

SMILES: CC(C)C[C@@H](NC(=O)[C@H](C)NC(=O)[C@H](NC(=O)[C@H](C)NC(=O)CNC(=O)[C@@H](NC=O)C(C)C)C(C)C)C(=O)N[C@H](C(=O)N[C@H](CC(C)C)C(=O)N[C@@H](Cc1c[nH]c2ccccc12)C(=O)N[C@H](CC(C)C)C(=O)N[C@@H](Cc1c[nH]c2ccccc12)C(=O)N[C@@H](C(=O)N[C@@H](Cc1c[nH]c2ccccc12)C(=O)N[C@@H](C(=O)N[C@@H](Cc1c[nH]c2ccccc12)C(=O)NCCO)[C@H](C)O)[C@H](C)O)C(C)C [compound 4322] (For-VGA[dV]A[dL]V[dL]W[dL]W[dT]W[dT]W-NHCH2CH2OH)
- H+/Na+ transport activity normalized against the value of 1 (1.00) [1]: 1.05
- viability [2]: 100%
- antibacterial activity [3]: -

SMILES: CC(C)C[C@@H](NC(=O)[C@H](C)NC(=O)CNC(=O)[C@@H](NC=O)C(C)C)C(=O)N[C@@H](C)C(=O)N[C@@H](C(=O)N[C@H](C(=O)N[C@H](CC(C)C)C(=O)N[C@@H](Cc1c[nH]c2ccccc12)C(=O)N[C@@H](C(=O)N[C@@H](Cc1c[nH]c2ccccc12)C(=O)N[C@@H](C(=O)N[C@@H](Cc1c[nH]c2ccccc12)C(=O)N[C@@H](C(=O)N[C@@H](Cc1c[nH]c2ccccc12)C(=O)NCCO)[C@H](C)O)C(C)C)C(C)C)C(C)C)C(C)C [compound 11625] (For-VGA[dL]A[dV]V[dL]W[dV]W[dV]W[dT]W-NHCH2CH2OH)
- H+/Na+ transport activity normalized against the value of 1 (1.00) [1]: 1.08
- viability [2]: 100%
- antibacterial activity [3]: -

SMILES: CC(C)C[C@@H](NC(=O)[C@H](Cc1c[nH]c2ccccc12)NC(=O)[C@H](NC(=O)[C@H](Cc1c[nH]c2ccccc12)NC(=O)[C@@H](CC(C)C)NC(=O)[C@@H](NC(=O)[C@H](NC(=O)[C@H](C)NC(=O)[C@H](NC(=O)[C@H](C)NC(=O)CNC(=O)[C@@H](NC=O)C(C)C)C(C)C)C(C)C)C(C)C)[C@H](C)O)C(=O)N[C@@H](Cc1c[nH]c2ccccc12)C(=O)N[C@@H](C(=O)N[C@@H](Cc1c[nH]c2ccccc12)C(=O)NCCO)C(C)C [compound 3161] (For-VGA[dV]A[dV]V[dL]W[dT]W[dL]W[dV]W-NHCH2CH2OH)
- H+/Na+ transport activity normalized against the value of 1 (1.00) [1]: 1.00
- viability [2]: 100%
- antibacterial activity [3]: -

SMILES: CC(C)C[C@@H](NC(=O)[C@H](C)NC(=O)CNC(=O)[C@@H](NC=O)C(C)C)C(=O)N[C@@H](C)C(=O)N[C@@H](C(=O)N[C@H](C(=O)N[C@@H](C(=O)N[C@@H](Cc1c[nH]c2ccccc12)C(=O)N[C@H](CC(C)C)C(=O)N[C@@H](Cc1c[nH]c2ccccc12)C(=O)N[C@H](CC(C)C)C(=O)N[C@@H](Cc1c[nH]c2ccccc12)C(=O)N[C@@H](C(=O)N[C@@H](Cc1c[nH]c2ccccc12)C(=O)NCCO)C(C)C)C(C)C)C(C)C)C(C)C [compound 6345] (For-VGA[dL]A[dV]V[dV]W[dL]W[dL]W[dV]W-NHCH2CH2OH)
- H+/Na+ transport activity normalized against the value of 1 (1.00) [1]: 1.13
- viability [2]: 57.3%
- antibacterial activity [3]: ++
